Measurements as given in patent US9765092B2, “Tricyclic piperidine compounds” (ACTELION PHARMACEUTICALS LTD, priority 2013, dated 2017).

Each compound was assayed against human TPH1 (Homo sapiens (Human), UniProt P17752) (assay: Biochemical in vitro assay using fluorescence readout (TPH1 inhibition)). Settings: not given.
human TPH1, sequence (P17752 whole entry): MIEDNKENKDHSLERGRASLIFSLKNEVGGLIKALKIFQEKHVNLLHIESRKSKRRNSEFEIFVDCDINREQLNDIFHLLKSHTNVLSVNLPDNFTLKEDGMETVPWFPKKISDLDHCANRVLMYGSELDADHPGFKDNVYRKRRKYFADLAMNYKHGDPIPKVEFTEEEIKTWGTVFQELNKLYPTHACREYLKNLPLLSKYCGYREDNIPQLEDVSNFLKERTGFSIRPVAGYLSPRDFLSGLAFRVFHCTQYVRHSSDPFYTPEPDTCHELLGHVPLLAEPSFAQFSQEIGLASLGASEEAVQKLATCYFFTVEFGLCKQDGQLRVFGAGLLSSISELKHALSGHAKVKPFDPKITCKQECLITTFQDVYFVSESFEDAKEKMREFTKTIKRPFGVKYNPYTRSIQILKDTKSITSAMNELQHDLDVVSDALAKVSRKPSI
In the case of Cc1ccc(C2c3c(nc4sc(C)nn34)CCN2C(=O)COc2ccc(NS(C)(=O)=O)nc2Cl)c(F)c1 (stereo not shown) [Example 1.53.2, N-(6-chloro-5-(2-(5-(2-fluoro-4-methylphenyl)-2-methyl-7,8-dihydro-[1,3,4]thiadiazolo[2′,3′:2,3]imidazo[4,5-c]pyridin-6(5H)-yl)-2-oxoethoxy)pyridin-2-yl)methanesulfonamide], the IC50 is reported as 12 nM.

Same assay, conditions: full length human TPH1, 40 μM L-tryptophan, 15° C., 60 minutes, fluorescence at 540 nm; mean if determined several times
CONC(=O)c1ccc(OCC(=O)N2CCc3nc4sc(C)nn4c3C2c2ccc(Cl)cc2F)c(Cl)n1 (stereo not shown) [Example 1.4.41, 6-Chloro-5-(2-(5-(4-chloro-2-fluorophenyl)-2-methyl-7,8-dihydro-[1,3,4]thiadiazolo[2′,3′:2,3]imidazo[4,5-c]pyridin-6(5H)-yl)-2-oxoethoxy)-N-methoxypicolinamide] was tested, and the IC50 was 6 nM.
With Cc1nn2c3c(nc2s1)CCN(C(=O)COc1ccc(C(=O)N(C)C)nc1Cl)C3c1ncc(C(=O)N(C)C)s1 (stereo not shown) [Example 1.37.4, 2-(6-(2-((2-Chloro-6-(dimethylcarbamoyl)pyridin-3-yl)oxy)acetyl)-2-methyl-5,6,7,8-tetrahydro-[1,3,4]thiadiazolo[2′,3′:2,3]imidazo[4,5-c]pyridin-5-yl)-N,N-dimethylthiazole-5-carboxamide] the IC50 was 40 nM.
Cc1nn2c3c(nc2s1)CCN(C(=O)COc1ccc(N2CCNCC2=O)nc1Cl)C3c1ccc(Cl)cc1F (stereo not shown) [Example 1.4.35, 1-(6-chloro-5-(2-(5-(4-chloro-2-fluorophenyl)-2-methyl-7,8-dihydro-[1,3,4]thiadiazolo[2′,3′:2,3]imidazo[4,5-c]pyridin-6(5H)-yl)-2-oxoethoxy)pyridin-2-yl)piperazin-2-one] showed an IC50 of 6 nM.
For Cc1nn2c3c(nc2s1)CCN(C(=O)COc1ccc(N2CCC(F)(F)C2)nc1Cl)C3c1ccc(Cl)cc1F (stereo not shown) [Example 1.4.37, 1-(5-(4-Chloro-2-fluorophenyl)-2-methyl-7,8-dihydro-[1,3,4]thiadiazolo[2′,3′:2,3]imidazo[4,5-c]pyridin-6(5H)-yl)-2-((2-chloro-6-(3,3-difluoropyrrolidin-1-yl)pyridin-3-yl)oxy)ethanone], the IC50 was 3 nM.
Work on Cc1nn2c3c(nc2s1)CCN(C(=O)COc1ccc(N2CCOCC2)nc1Cl)C3c1cc(C(=O)O)cs1 (stereo not shown) [Example 1.46.1, 5-(6-(2-((2-chloro-6-morpholinopyridin-3-yl)oxy)acetyl)-2-methyl-5,6,7,8-tetrahydro-[1,3,4]thiadiazolo[2′,3′:2,3]imidazo[4,5-c]pyridin-5-yl)thiophene-3-carboxylic acid] yielded an IC50 of 18 nM.

Same assay, conditions: human TPH1, fluorescence readout
CN1CCN(c2ccc(OCC(=O)N3CCc4nc5sc(C6CC6)nn5c4C3c3ccc(Cl)cc3F)c(Cl)n2)CC1 (stereo not shown) [Example 4.1.4, 1-(5-(4-chloro-2-fluorophenyl)-2-cyclopropyl-7,8-dihydro-[1,3,4]thiadiazolo[2′,3′:2,3]imidazo[4,5-c]pyridin-6(5H)-yl)-2-((2-chloro-6-(4-methylpiperazin-1-yl)pyridin-3-yl)oxy)ethanone] gave an IC50 of 12 nM.
Cc1cnc(C2c3c(nc4sc(C)nn34)CCN2C(=O)COc2ccc(C(=O)N(C)C)nc2Cl)c(F)c1 (stereo not shown) [Example 1.31.7, 6-chloro-5-(2-(5-(3-fluoro-5-methylpyridin-2-yl)-2-methyl-7,8-dihydro-[1,3,4]thiadiazolo[2′,3′:2,3]imidazo[4,5-c]pyridin-6(5H)-yl)-2-oxoethoxy)-N,N-dimethylpicolinamide] showed an IC50 of 6 nM.
Cc1nn2c3c(nc2s1)CCN(C(=O)COc1ccc(N2CCOCC2)nc1Cl)C3c1ncc(C2CC2)cc1F (stereo not shown) [Example 1.14.1, 2-((2-chloro-6-morpholinopyridin-3-yl)oxy)-1-(5-(5-cyclopropyl-3-fluoropyridin-2-yl)-2-methyl-7,8-dihydro-[1,3,4]thiadiazolo[2′,3′:2,3]imidazo[4,5-c]pyridin-6(5H)-yl)ethanone] showed an IC50 of 4 nM.
Work on Cc1nn2c3c(nc2s1)CCN(C(=O)COc1ccc(N2CCOCC2)nc1Cl)C3c1csc(C2OCCO2)c1 (stereo not shown) [Example 1.85.1, 1-(5-(5-(1,3-dioxolan-2-yl)thiophen-3-yl)-2-methyl-7,8-dihydro-[1,3,4]thiadiazolo[2′,3′:2,3]imidazo[4,5-c]pyridin-6(5H)-yl)-2-((2-chloro-6-morpholinopyridin-3-yl)oxy)ethan-1-one] yielded an IC50 of 13 nM.
For Cc1nc(C)c(C2c3c(nc4sc(C)nn34)CCN2C(=O)COc2ccc(C(=O)N(C)C3CC3)nc2Cl)s1 (stereo not shown) [Example 1.68.4, 6-chloro-N-cyclopropyl-5-(2-(5-(2,4-dimethylthiazol-5-yl)-2-methyl-7,8-dihydro-[1,3,4]thiadiazolo[2′,3′:2,3]imidazo[4,5-c]pyridin-6(5H)-yl)-2-oxoethoxy)-N-methylpicolinamide], the IC50 was 19 nM.
With O=C(COc1ccc(N2CCOCC2)cc1Cl)N1CC=C2N=C3SC=CN3C2[C@H]1c1ccc(Cl)cc1F (stereo partly drawn) [Example 6.4.2, 1-((5R)-5-(4-chloro-2-fluorophenyl)-4a,5-dihydro-thiazolo[2′,3′:2,3]imidazo[4,5-c]pyridin-6(7H)-yl)-2-(2-chloro-4-morpholinophenoxy)ethanone] the IC50 was 4 nM.
With CCc1ncccc1OCC(=O)N1CCc2nc3sc(C)nn3c2C1c1cnc(N2CCOCC2)s1 (stereo not shown) [Example 1.7.1, 2-((2-ethylpyridin-3-yl)oxy)-1-(2-methyl-5-(2-morpholinothiazol-5-yl)-7,8-dihydro-[1,3,4]thiadiazolo[2′,3′:2,3]imidazo[4,5-c]pyridin-6(5H)-yl)ethanone] the IC50 was 337 nM.
Work on COCc1ccc(C2c3c(nc4sc(C)nn34)CCN2C(=O)COc2ccc(C(=O)NC3CC3)nc2Cl)c(F)c1 (stereo not shown) [Example 1.82.2, 6-chloro-N-cyclopropyl-5-(2-(5-(2-fluoro-4-(methoxymethyl)phenyl)-2-methyl-7,8-dihydro-[1,3,4]thiadiazolo[2′,3′:2,3]imidazo[4,5-c]pyridin-6(5H)-yl)-2-oxoethoxy)picolinamide] yielded an IC50 of 14 nM.
Compound CCc1nc(NS(C)(=O)=O)ccc1OCC(=O)N1CCc2nc3sc(C(F)(F)F)nn3c2C1c1ccc(Cl)cc1F (stereo not shown) [Example 5.1.2, N-(5-(2-(5-(4-chloro-2-fluorophenyl)-2-(trifluoromethyl)-7,8-dihydro-[1,3,4]thiadiazolo[2′,3′:2,3]imidazo[4,5-c]pyridin-6(5H)-yl)-2-oxoethoxy)-6-ethylpyridin-2-yl)methanesulfonamide] has an IC50 of 32 nM.
In the case of CCc1nc(N2CCCS2(=O)=O)ccc1OCC(=O)N1CCc2nc3sc(C(F)F)nn3c2C1c1ccc(Cl)cc1F (stereo not shown) [Example 8.1.3, 1-(5-(4-chloro-2-fluorophenyl)-2-(difluoromethyl)-7,8-dihydro-[1,3,4]thiadiazolo[2′,3′:2,3]imidazo[4,5-c]pyridin-6(5H)-yl)-2-((6-(1,1-dioxidoisothiazolidin-2-yl)-2-ethylpyridin-3-yl)oxy)ethanone], the IC50 is reported as 7 nM.
Work on Cc1nn2c3c(nc2s1)CCN(C(=O)COc1ccc(N(C)CC(F)(F)F)nc1Cl)C3c1ccc(Cl)cc1F (stereo not shown) [Example 1.4.38, 1-(5-(4-chloro-2-fluorophenyl)-2-methyl-7,8-dihydro-[1,3,4]thiadiazolo[2′,3′:2,3]imidazo[4,5-c]pyridin-6(5H)-yl)-2-((2-chloro-6-(methyl(2,2,2-trifluoroethyl)amino)pyridin-3-yl)oxy)ethanone] yielded an IC50 of 3 nM.
O=C(COc1ccc(CN2CCOCC2)cc1Cl)N1CCc2nc3sccn3c2C1c1cnn(-c2ccccc2)c1 (stereo not shown) [Example 6.13.5, 2-(2-chloro-4-(morpholinomethyl)phenoxy)-1-(5-(1-phenyl-1H-pyrazol-4-yl)-7,8-dihydrothiazolo-[2′,3′:2,3]imidazo[4,5-c]pyridin-6(5H)-yl)ethanone] showed an IC50 of 7 nM.
For Cc1nn2c3c(nc2s1)CCN(C(=O)C1(Oc2ccc(C(=O)N(C)C)nc2Cl)CC1)C3c1ccc(Cl)cc1F (stereo not shown) [Example 1.4.57, 6-chloro-5-(1-(5-(4-chloro-2-fluorophenyl)-2-methyl-5,6,7,8-tetrahydro-[1,3,4]thiadiazolo[2′,3′:2,3]imidazo[4,5-c]pyridine-6-carbonyl)cyclopropoxy)-N,N-dimethylpicolinamide], the IC50 was 39 nM.
CS(=O)(=O)Nc1ccc(OCC(=O)N2CCc3nc4sccn4c3C2c2ccc(Cl)cc2F)c(Cl)n1 (stereo not shown) [Example 6.4.8, N-(6-chloro-5-(2-(5-(4-chloro-2-fluorophenyl)-7,8-dihydrothiazolo[2′,3′:2,3]imidazo[4,5-c]pyridin-6(5H)-yl)-2-oxoethoxy)pyridin-2-yl)methanesulfonamide] was tested, and the IC50 was 3 nM.
CCc1nc(C)ccc1OCC(=O)N1CCc2nc3sc(C)nn3c2C1c1cnc(C2CC2)nc1 (stereo not shown) [Example 1.10.1, 1-(5-(2-cyclopropylpyrimidin-5-yl)-2-methyl-7,8-dihydro-[1,3,4]thiadiazolo[2′,3′:2,3]imidazo[4,5-c]pyridin-6(5H)-yl)-2-((2-ethyl-6-methylpyridin-3-yl)oxy)ethanone] was tested, and the IC50 was 187 nM.
Cc1ccccc1OCC(=O)N1CCc2nc3sccn3c2C1c1nc2ccccc2s1 (stereo not shown) [Example 6.12.2, 1-(5-(benzo[d]thiazol-2-yl)-7,8-dihydrothiazolo-[2′,3′:2,3]imidazo[4,5-c]pyridin-6(5H)-yl)-2-(o-tolyloxy)-ethanone] showed an IC50 of 115 nM.
Work on Cc1nn2c3c(nc2s1)CCN(C(=O)COc1ccc(N2CCOCC2)nc1Cl)C3c1ncc(Cl)cc1F (stereo not shown) [Example 1.33.1, 1-(5-(5-chloro-3-fluoropyridin-2-yl)-2-methyl-7,8-dihydro[1,3,4]thiadiazolo[2′,3′:2,3]imidazo[4,5-c]pyridin-6(5H)-yl)-2-((2-chloro-6-morpholinopyridin-3-yl)oxy)ethanone] yielded an IC50 of 2 nM.
CS(=O)(=O)Nc1ccc(OCC(=O)N2CCc3nc4sc(C(F)F)nn4c3[C@@H]2c2ccc(Cl)cc2F)c(Cl)n1 [Example 8.1.4] was tested, and the IC50 was 12 nM.
Cc1nn2c3c(nc2s1)CCN(C(=O)COc1ccc(C(N)=O)nc1Cl)C3c1ccc(Cl)cc1F (stereo not shown) [Example 1.4.19, 6-chloro-5-(2-(5-(4-chloro-2-fluorophenyl)-2-methyl-7,8-dihydro-[1,3,4]thiadiazolo[2′,3′:2,3]imidazo[4,5-c]pyridin-6(5H)-yl)-2-oxoethoxy)picolinamide] gave an IC50 of 5 nM.
